Values joined by “and” are separate entries in the source; they are usually repeats but may differ in a detail not shown here. Equal entries are not always repeated. “Also recorded” adds a separate entry of the source.

The test system of data set [1] is isolated rat liver mitochondria. In words: MPT spectrophotometric assay (mitochondrial swelling). The following applies: for effect on DCA-induced MPT / mitochondrial swelling: preincubation (500 μM bile acid or cyclosporine A) before DCA. As for the experimental part: Isolation of mitochondria and MPT assays. Low calcium liver mitochondria were isolated from male 200-250 g Sprague-Dawley rats by density gradient centrifugation as previously published (Botla et al., J. Pharmacol. Exp. Ther., 272, 930-938 (1995); Walajtys-Rhode et al., J. Biol. Chem., 267, 370-379 (1992); and Sokol et al., Gastroenterology, 99, 1061-1071 (1990)). The mitochondrial fraction was resuspended in 30 ml of wash buffer containing 0.1 M KCl, 5 mM 3-(N-morpholino)-propane sulfonic acid (MOPS), and 1 mM EGTA, at pH 7.4 and centrifuged at 7,000×g for 10 min at 4° C. A final wash was carried out in chelex-100-treated buffer (Bio-Rad Laboratories, Hercules, Calif.) containing no EGTA. The resulting pellet was suspended in 4 ml of chelex--100-treated buffer containing 125 mM sucrose, 5 mM HEPES, 50 mM KCl and 2 mM KH2PO4. The usual yield of mitochondria was approximately 25 mg of protein per gram of liver tissue. Mitochondrial purity was established as previously described (Botla et al., J. Pharmacol. Exp. Ther., 272, 930-938 (1995)). Protein concentrations were determined using the Bio-Rad protein assay kit as specified by the manufacturer.
MPT was measured spectrophotometrically as described previously (Botla et al., J. Pharmacol. Exp. Ther., 272, 930-938 (1995); Pastorino et al., J. Biol. Chem., 268, 13791-13798 (1993)), during 10 min incubations at 25° C. using mitochondria (1 mg of protein/ml) suspended in 3 ml of a chelex-100-treated buffer containing 0.1 M NaCl, 10 mM MOPS, pH 7.4. Swelling was monitored at 540 nm in a Beckman DU 64 spectrophotometer. Basal values of mitochondria absorbance were measured for 5 min, and the optical density was monitored another 5 min after addition of 200 μM DCA or 80 μM phenylarsine oxide (PhAsO; Sigma Chemical Co.). For coincubation studies, mitochondria were preincubated with 500 μM UDCA or hyodeoxycholic acid for 5 min at 25° C. prior to the assay.
Spectrophotometric and Fluorimetric Assays of MPT. The MPT was assessed using a spectrophotometric assay measuring high amplitude rapid changes in mitochondrial volume, and a fluorimetric assay quantitating the release of calcein from calcein-loaded mitochondria. The MPT was measured spectrophotometrically as previously described (Pastorino, J. Biol. Chem., 268, 13791-13798 (1993); Botla et al., J. Pharmacol. Exp. Ther., 272, 930-938 (1995)). Briefly, mitochondria (3 mg protein) were incubated in 3 ml of chelex-100-treated respiration buffer (0.1 M NaCl, 10 mM MOPS, pH 7.4) for 10 min at 25° C. and monitored at 540 nm in a Beckman DU 64 spectrophotometer. Basal values of mitochondrial absorbance were measured for 5 min, and the optical density was monitored for an additional 5 min after addition of increasing concentrations of DCA (50-200 μM) or 80 μM phenylarsine oxide (PhAsO; Sigma Chemical Co., St. Louis, Mo.). For the coincubation studies, mitochondria were preincubated with UDCA (100-500 μM), or 500 μM hyodeoxycholic acid (HDCA; Sigma Chemical Co.) for 5 min at 25° C. prior to initiation of the assay.
Measurement of MPT and determination of cytochrome c content in supernatants and mitochondrial pellets after MPT. The MPT was assessed using a spectrophotometric assay measuring high amplitude rapid changes in mitochondria volume. Mitochondria (1 mg protein) were incubated in 1 ml of chelex-100-treated respiration buffer (0.1 M NaCl, 10 mM MOPS, pH 7.4) for 10 min at 25° C. and swelling was monitored at 540 nm in a Beckman DU 64 spectrophotometer. Malate and glutamate (1 mM) were added to initiate respiration, and 3 min later rotenone (5 μM), an inhibitor of complex I of the respiratory chain, was also added to the supension. Basal values of mitochondria absorbance were measured for 5 min, and the optical density was monitored for an additional 5 min after addition 200 μM DCA or 80 μM phenylarsine oxide (PhAsO; Sigma Chemical Co.). […]

Another data set concerns HuH-7 cells. The data set is described as follows: TGF-β1-induced apoptosis, Hoechst staining, HuH-7 cells. Format: cell-based, human. Particulars: 1 nM TGF-β1, 100 μM bile acid, 72 h. Here is the method: (§1) Incubation of cells with ethanol, TGF-β1, anti-Fas antibody or okadaic acid. Freshly isolated rat hepatocytes were cultured for 3 h as described above and then incubated with William's E medium supplemented with either 0.5% ethanol, 50 μM UDCA, ethanol plus UDCA, or no addition (control) for 2 h and 4 h. HuH-7 cells were incubated with Dulbecco's medium supplemented with either 1 nM TGF-β1 (R & D Systems, Minneapolis, Minn.), 100 μM UDCA, TGF-β1+UDCA, or no addition (control) for 24 h, 48 h, and 72 h. Hep G2 cells were incubated with Dulbecco's medium supplemented with either 0.5 μg/ml of anti-Fas antibody CH-11 (Upstate Biotechnology, Inc., Lake Placid, N.Y.), 100 μM UDCA, CH-11+UDCA, or no addition for 48 h. Both HuH-7 cells and human osteogenic sarcoma Saos-2 cells were cultured in Dulbecco's medium supplemented with either 50 nM okadaic acid (Boehringer Mannheim Biochemicals, Inc, Indianapolis, Ind.), 100 μM UDCA, okadaic acid+UDCA, or no addition for 48 h. In all the combination groups, cells were pretreated with UDCA alone for 60 min prior to addition of ethanol, TGF-β1, anti-Fas antibody or okadaic acid.
HuH-7 cells were treated with 1 nM TGF-β1, 100 μM of either hyodeoxycholic acid, taurocholic acid, tauroursodeoxycholic acid (Sigma Chemical Co.) or glycoursodeoxycholic acid (Steraloids Inc., Wilton, N.H.), or a combination of TGF-β1 plus the individual bile acids for 72 h. HeLa and Cos-7 cells were incubated with 50 nM okadaic acid, 100 μM of either tauroursodeoxycholic acid or glycoursodeoxycholic acid, or a combination of okadaic acid plus the individual bile acids for 24 h. In the combination groups, cells were pretreated with the bile acid alone for 60 min prior to incuation with TGF-β1 or okadaic acid. In all studies, the medium was gently removed at the indicated times and scored for nonviable cells. The attached cells were fixed for morphologic evaluation of apoptosis.
Morphological evaluation of apoptosis. […] Fluorescence was visualized with a Zeiss standard fluorescence microscope (Carl Zeiss, Inc., Thornwood, N.Y.). Photographs were taken with Kodak Ektar-1000 film (Eastman Kodak Co.). Stained nuclei were scored by blind analysis and categorized according to the condensation and staining characteristics of chromatin. Normal nuclei were identified as noncondensed chromatin dispersed over the entire nucleus. Apoptotic nuclei were identified by condensed chromatin, contiguous to the nuclear membrane, as well as nuclear fragmentation of condensed chromatin. Three fields per dish of approximately 500 nuclei were counted; mean values are expressed as the percent of apoptotic nuclei.

The test system of the next data set is cytochrome c. The data set is described as follows: Cytochrome c release from isolated mitochondria after MPT. The arrangement: species or system rat. Particulars: added to isolated mitochondria before DCA.
Another data set concerns astrocytes. The data set is described as follows: Unconjugated bilirubin-induced apoptosis in astrocytes. It is filed as cell-based, rat. Particulars: for apoptosis, increase over control values: 4 hours.
The test system of a further data set is stroke injury. In words: Stroke injury in a rat model. Format: in vivo. The following applies: preliminary results.
The subject of the next data set is rat primary hepatocytes. In words: FACS analysis of ΔΨm and ROS, rat primary hepatocytes. Format: cell-based. The following applies: 1% ETOH, 4 h, hepatocytes. Here is the method: A ΔΨm and ROS measurement. ΔΨm and ROS production were measured by FACScan (Becton Dickinson) analysis. Freshly isolated rat hepatocytes were cultured for 3 h as described above and then incubated with William's E medium supplemented with either 100 μM DCA, 100 μM UDCA, equal molar amounts of both, or no bile acid (control), for 6 h. Rat hepatocytes were also cultured with either 1% ethanol, 100 μM UDCA, ethanol+UDCA, or no addition (control) for 4 h. HuH-7 cells, Hep G2 cells, and human osteogenic sarcoma Saos-2 cells were incubated with TGF-β1, anti-Fas antibody or okadaic acid, respectively, for 48 h under the same conditions as outlined above. For combination studies, cells were pretreated with UDCA or hyodeoxycholic acid for 60 min prior to addition of DCA, ethanol, TGF-β1, anti-Fas antibody or okadaic acid. Aliquots of 1.0×10^6 cells were incubated for 15 min at 37° C. with 50 nM 3,3′-dihexyloxacarbocyanine iodide [DiOC6(3)], 2 μM dihydroethidium (HE), or 5 μM 2′,7′-dichlorofluorescin diacetate (H2DCFDA; Molecular Probes, Inc. Eugene, Oreg.) and analyzed by cytofluorometry (Cathcart et al., Anal. Biochem., 134, 111-116 (1983); Zamzami et al., J. Exp. Med., 181, 1661-1672 (1 995); Carter et al., J. Leukocyte Biol., 55, 253-258 (1994)).
Rat primary hepatocytes were incubated with 100 μM DCA and 1% ETOH for 6 h and 4 h, respectively; HuH-7 cells with 1 nM TGF-β1 for 48 h; Hep G2 cells with 0.5 μg/ml anti-Fas antibody (CH-11) for 48 h, and Saos-2 cells with 50 nM okadaic acid (OA) for 48 h. In each combination group, cells were pretreated with 100 μM UDCA alone for 60 min prior to addition of the inducer. Aliquots of 1.0×10^6 cells were incubated for 15 min at 37° C. with 5 μM 2′,7′-dichlorofluorescin diacetate (H2DCFDA) and analyzed by cytofluorometry.

The test system of the next data set is primary rat hepatocytes. In words: Ethanol-induced apoptosis, Hoechst staining, primary rat hepatocytes. Particulars: 0.5% ethanol. Format: cell-based. As for the experimental part: as §1
Morphological evaluation of apoptosis. Morphology was performed as described previously (Oberhammer et al., Proc. Natl. Acad. Sci. USA 89, 5408-5412 (1992)). Briefly, after fixation (with 4% formaldehyde in PBS, pH 7.4, for 10 min at room temperature), the cells were incubated with Hoechst dye 33258 (Sigma Chemical Co.) at 5 μg/ml in PBS for 5 min, washed with PBS and mounted with PBS:glycerol (3:1, v/v). Fluorescence was visualized with a Zeiss standard fluorescence microscope (Carl Zeiss, Inc., Thornwood, N.Y.). Photographs were taken with Kodak Ektar-1000 film (Eastman Kodak Co.). Stained nuclei were scored by blind analysis and categorized according to the condensation and staining characteristics of chromatin. Normal nuclei were identified as noncondensed chromatin dispersed over the entire nucleus. Apoptotic nuclei were identified by condensed chromatin, contiguous to the nuclear membrane, as well as nuclear fragmentation of condensed chromatin. Three fields per dish of approximately 500 nuclei were counted; mean values are expressed as the percent of apoptotic nuclei.

Method for cytochrome c: Mitochondria isolation. […] In short, animals were sacrificed by exsanguination under ether anesthesia and the livers removed and rinsed in normal saline. Approximately 10 g of minced liver was homogenized at a speed of 800 rpm using 6 complete up and down strokes with a speed controlled mechanical skill drill and a teflon pestle (Tri-R Model K41, Tri-R Instruments, Rockville Center, N.Y.) in an ice-cold solution of 70 mM sucrose, 220 mM mannitol, 1 mM EGTA and 10 mM HEPES, pH 7.4 as a 10% (wt/vol) homogenate. The homogenate was centrifuged at 600×g for 10 min at 4° C. in an SS-34 rotor in a Sorvall RC5C centrifuge (Sorvall Instruments, Newtown, Conn.), and the postnuclear supernatant was centrifuged at 7,000×g for 10 min at 4° C. […] The pellet was resuspended in 2 mL of homogenate buffer, and 1 mL of the resuspended pellet was carefully layered onto a 35-mL self-generating gradient containing 0.25 M sucrose, 1 mM EGTA and percoll (Pharmacia Fine Chemicals, Piscataway, N.J.) (75:25, vol/vol). The mitochondria were purified by centrifugation at 43,000×g for 30 min at 4° C. using a Beckman Ti60 rotor and a Beckman ultracentrifuge model L8-55 (Beckman Instruments, Inc., Schaumburg, Ill.). The clear supernatant solution removed and the lower turbid layer was resuspended in 30 mL of wash buffer containing 0.1 M KCl, 5 mM 3-(N-morpholino)-propane sulfonic acid (MOPS), and 1 mM EGTA, at pH 7.4 and centrifuged at 7,000×g for 10 min at 4° C. The resulting mitochondria pellet was washed in wash buffer two times. A final wash was carried out in chelex-100-treated buffer (Bio-Rad Laboratories, Richmond, Va.; 200-400 mesh, potassium form) without EGTA. The pellet was suspended in 4 mL of chelex-100-treated resuspension buffer containing 125 mM sucrose, 50 mM KCl, 5 mM HEPES, and 2 mM KH2PO4. The usual yield of mitochondria was approximately 25 mg of protein per gram of liver tissue. Mitochondria were used for experiments within 3 h of isolation. Aliquots were removed for examining the purity of the mitochondria preparation.
Measurement of MPT and determination of cytochrome c content in supernatants and mitochondrial pellets after MPT. The MPT was assessed using a spectrophotometric assay measuring high amplitude rapid changes in mitochondria volume. Mitochondria (1 mg protein) were incubated in 1 ml of chelex-100-treated respiration buffer (0.1 M NaCl, 10 mM MOPS, pH 7.4) for 10 min at 25° C. and swelling was monitored at 540 nm in a Beckman DU 64 spectrophotometer. […] Basal values of mitochondria absorbance were measured for 5 min, and the optical density was monitored for an additional 5 min after addition 200 μM DCA or 80 μM phenylarsine oxide (PhAsO; Sigma Chemical Co.). […]

As to cyclosporine A, the “inhibition of DCA-induced MPT (mitochondrial swelling)” value in data set [1] (200 μM DCA, pretreatment 500 μM UDCA or 5 μM cyclosporine A) was > 45% and 45.8±5.4%. Further, the “effect on DCA-induced MPT / mitochondrial swelling” value in data set [1] was “reduced deoxycholic acid-induced mitochondria swelling”.

For `C[C@H](CCC(=O)NCC(=O)O)[C@H]1CC[C@H]2[C@@H]3[C@@H](O)C[C@@H]4C[C@H](O)CC[C@]4(C)[C@H]3CC[C@]12C` [glycoursodeoxycholic acid], the “effect on DCA-induced MPT / mitochondrial swelling” value in data set [1] was “Inhibition of deoxycholic acid-induced MPT”. Besides, in the data set on HuH-7 cells, the “decrease of TGF-β1 apoptosis” value is on record as 37.5±5.1%. In addition, the “effect on deoxycholic acid-induced cytochrome c release” value in the data set with cytochrome c is “Inhibition of deoxycholic acid-induced MPT and cytochrome c release were also observed”.

In the case of `C=CC1=C(C)/C(=C/c2[nH]c(Cc3[nH]c(/C=C4\NC(=O)C(C)=C4C=C)c(C)c3CCC(=O)O)c(CCC(=O)O)c2C)NC1=O` [UCB, unconjugated bilirubin], the entries for the “apoptosis, increase over control values” in the data set on astrocytes (17 μM UCB) and in the data set on astrocytes (85.5 μM UCB) were “about 6 fold” and “about 11 fold”, respectively. Further, in the data set on astrocytes (85.5 μM UCB, 22 hours), the “percentage of apoptotic cells” value is reported as “about 48%”. Further, the cell viability result with astrocytes (UCB treatment) was “concentration and time dependent decrease in cell viability”.

Turning to `C[C@H](CCC(=O)NCCS(=O)(=O)O)[C@H]1CC[C@H]2[C@@H]3[C@@H](O)C[C@@H]4C[C@H](O)CC[C@]4(C)[C@H]3CC[C@]12C` [tauroursodeoxycholic acid], in the data set with stroke injury, the “mitochondria viability following a stroke injury” value was “improvement in mitochondria viability”. Besides, the “decrease of the area of stroke damage” value in the data set with stroke injury (pretreatment, compared to control animals) was “up to 50%”. Moreover, the “effect on DCA-induced MPT / mitochondrial swelling” value in data set [1] was “Inhibition of deoxycholic acid-induced MPT”. For the same molecule, the “decrease of TGF-β1 apoptosis” value with HuH-7 cells is 45.8±7.9%. For the same molecule, the “effect on deoxycholic acid-induced cytochrome c release” value with cytochrome c was “Inhibition of deoxycholic acid-induced MPT and cytochrome c release were also observed”.

As for `C[C@H](CCC(=O)NCCS(=O)(=O)O)[C@H]1CC[C@H]2[C@@H]3[C@H](O)C[C@@H]4C[C@H](O)CC[C@]4(C)[C@H]3C[C@H](O)[C@]12C` [taurocholic acid], in the data set with HuH-7 cells, the “inhibition of TGF-β1-induced apoptosis” value is recorded as “did not; also recorded: neither hyodeoxycholic acid nor taurocholic acid showed inhibition”.

For `CCO` [ethanol], the “mitochondrial swelling with the substance alone” value in data set [1] (substance alone added to isolated mitochondria) is reported as “did not induce mitochondria swelling”. Also, the “Peroxides Production (%) Inducer” value with rat primary hepatocytes is listed as 17.9 ± 5.4%. Besides, in the data set with primary rat hepatocytes (2 h), the “increase in apoptosis over control values” is on record as 10 fold. For the same molecule, the increase in apoptosis in the data set with primary rat hepatocytes (time not stated (summary)) came to 12 fold.

(Values after patent publication US20030044413A1, “Methods of limiting apoptosis of cells” (Regents of the University of Minnesota, priority 1998, published 2003).)
